Values quoted from earlier work in patent publication US7919499B2, “Naltrexone long acting formulations and methods of use” (Alkermes, Inc., priority 2004, dated 2011).
Read-outs that look alike come from different tables or passages of the source.

Tested on: patients with alcohol dependence
Conditions: oral vs placebo; for Risk difference as % reduction, relapse to heavy drinking / Risk difference (95% CI), relapse to heavy drinking: Hopkins meta-analysis; for Risk difference (95% CI), relapse to heavy drinking: nine studies, fixed effects model
[1] = Bouza et al, short term studies (≦12 weeks), listed as Oral Naltrexone
[2] = Cochrane Review, 12 weeks, listed as Oral Naltrexone

O=C1CC[C@@]2(O)[C@H]3Cc4ccc(O)c5c4[C@@]2(CCN3CC2CC2)[C@H]1O5 [oral naltrexone, naltrexone]
Decrease of odds of relapsing to heavy drinking relative to placebo (Bouza et al, short term studies (≦12 weeks)): 38%
Decrease of odds of relapsing to heavy drinking relative to placebo [1]: (38% reduction)
Odds ratio (95% CI), relapse to heavy drinking [1]: 0.62 (0.52, 0.75)
Decrease of relapse rate relative to placebo (Cochrane Review, 12 weeks): 36%
Decrease of relapse rate relative to placebo [2]: (36% reduction)
Relative risk (95% CI), relapse to heavy drinking [2]: 0.64 (0.51, 0.82)
Risk difference as % reduction, relapse to heavy drinking: 13%
Risk difference (95% CI), relapse to heavy drinking: 0.13
Risk difference (95% CI), relapse to heavy drinking (listed as Oral Naltrexone): 0.13 (0.08, 0.17)
Risk difference as % reduction, relapse to heavy drinking (listed as Oral Naltrexone): (13% reduction)
